Values after ≈ are worked out from the molar mass of the structure shown. Where two headings read alike, the source gives them in different places. Where a SMILES comes first, the peptide text is derived from it. [ ]: non-standard residue; d: D form. d(hArg) = N=C(N)NCCCC[C@@H](N)C(=O)O
What was measured:
[1] = system: Acinetobacter baumannii (PDR) Tulane isolate; test: microbe, parasite or virus in culture; details: read-out: MIC, AB (PDR)Tulane
[2] = system: 14 clinical isolates of resistant bacterial strains; test: Broth dilution, summary over the 14 clinical isolates of the first set; assay type: cell-based; details: statement for all 14 clinical isolates of the first set; read-out: MIC, all isolates (completely resistant)
Procedure: In Figure 4B, we plot the fraction of isolates sterilized as functions of antibiotic concentration.
(§1) Subcultures, prepared by inoculating 25 mL of fresh tryptic soy broth (TSB) with 200 μL of an overnight culture, were grown to log phase (OD600 = 0.3–0.6), after which cell counts were determined by measuring the OD600 (1.0 = 5 × 10^8 CFU/mL for E. coli, 4 × 10^8 CFU/mL for K. pneumoniae, 4 × 10^8 CFU/mL for P. aeruginosa, 1.5 × 10^8 CFU/mL for S. aureus). Bacterial cells were diluted to appropriate concentrations in TSB. We used the following clinical bacterial isolates of Klebsiella pneumoniae in this study: Strains KP6, KP46, NDM-1, KP396, and KP398 have been previously described.[43] ST58 strains C2, C3, and I2 are also described.[41] […] MRSA, […] S. aureus strain, is SAP400, a USA400 strain of community-acquired MRSA. […] The second independent set of K. pneumoniae isolates are previously described.[20],[21]
(§2) The antibiotics were serially diluted by a factor of 2:3 horizontally across 96-well plates from Corning, 25 μL per well. One column was reserved for controls. For the assays performed in the presence of RBC, type O+ human RBCs at 0 or 2.5 × 10^9 cells/mL were added in 50 μL aliquots to all wells. Following a 30-min incubation, 50 μL of TSB, inoculated with 5 × 10^5 CFU/mL, was added to all wells, and plates were incubated overnight at 37 °C. Following overnight incubation at 37 °C, the OD600 was measured (values of less than 0.1 were considered sterilized). To assess bacterial growth in the assays with RBC, the OD600 was measured after a second-day inoculation with 10 μL of solution from the original plate added to 100 μL of sterile TSB followed by overnight incubation.

[3] = system: MRSA SAP400, a USA400 strain; test: microbe, parasite or virus in culture; details: Staphylococcus aureus, read-out: MIC, MRSA USA400
Procedure: as §1, §2
(§3) Experiments were repeated four to eight times independently, with pairs of replicate measurements on each 96-well plate. After overnight growth, optical densities were measured at 660 nm and the sterilized wells were identified by having O.D. < 0.08. Nonsterilized wells were nearly opaque with OD > 0.6. For each measurement, we recorded the largest dilution that sterilized the bacteria. Statistics are done on dilution numbers, rather than calculated concentrations, because only the former have normal distributions.

[4] = system: Pseudomonas aeruginosa clinical isolates; test: microbe, parasite or virus in culture; details: Pseudomonas aeruginosa
Procedure: as §1, §2, §3

[5] = system: K. pneumoniae clinical isolates; test: microbe, parasite or virus in culture; details: Klebsiella pneumoniae
Procedure: as §1
as §2, with “Following a 30-min incubation, 50 μL of TSB, inoculated with 5 × 10^5 CFU/mL, was added to all wells, and plates were incubated overnight at 37 °C. Following overnight incubation at 37 °C, the OD600 was measured (values of less than 0.1 were considered sterilized).” left out
as §3

[6] = system: human RBCs; assay type: cell-based
Procedure: Human O+ erythrocytes were obtained from Interstate Blood Bank, Inc. Red blood cells were subjected to four or more cycles of centrifugation at 1000g with resuspension in fresh PBS. Following the final wash step, the supernatant was clear and colorless. RBC concentration was determined using a standard hemocytometer.
Peptide was serially diluted in PBS starting at a concentration of 100 μM. The final volume of peptide in each well was 50 μL. To each well, 50 μL of RBCs in PBS at 2 × 10^8 cells/mL was added. As a positive lysis control, 1% Triton was used. The mixtures were incubated at 37 °C for 1 h, after which they were centrifuged at 1000g for 5 min. After centrifugation, 10 μL of supernatant was transferred to 90 μL of DI H2O in a fresh 96-well plate. The absorbance of released hemoglobin at 410 nm was recorded, and the fractional hemolysis was calculated based on the 100 and 0% lysis controls. At least three independent experiments were performed. Results shown are averages.

[7] = system: WI-38 human fibroblast cells; test: in vitro; assay type: cell-based
Procedure: The day before cytotoxicity experiments, the 10,000 cells/well were plated in a 96-well tissue-culture plate. […] To perform the cytotoxicity assay, media was removed from the wells and replaced with peptide solutions. […] The plate was read for SYTOX fluorescence every 5 min for an hour with an excitation wavelength of 504 nm and an emission wavelength of 523 nm. Percent cytotoxicity was calculated at 60 min using the 100 and 0% lysis controls. At least three independent experiments were averaged.

[8] = ATCC33495, read-out: MIC, KP ATCC 33495

MIC [1] [µM] | MIC [2] [µM] | MIC [3] [µM] | MIC ([4]; read-out: MIC, PA(mucoid)) [µM] | MIC ([4]; read-out: MIC, PA(non-mucoid)) [µM] | MIC [5, 8] [µM] | MIC ([5]; read-out: MIC, KP 6) [µM] | MIC ([5]; read-out: MIC, KP 46) [µM] | MIC ([5]; read-out: MIC, KP 398) [µM] | MIC ([5]; read-out: MIC, KP 2146NDM-1) [µM] | MIC ([5]; read-out: MIC, KP (CRE)) [µM] | MIC ([5]; read-out: MIC, KP ST258 C2) [µM] | MIC ([5]; read-out: MIC, KP ST258 C3) [µM] | MIC ([5]; read-out: MIC, KP ST258 I2) [µM] | MIC ([5]; read-out: MIC, KP ST396) [µM] | SMILES | Hemolysis at 100 μM (fractional hemolysis) [6] | EC50 [7] [µM]
> 150 | > 150 | > 150 | > 150 | > 150 | – | – | – | – | – | – | – | – | – | – | CC1(C)S[C@@H]2[C@H](NC(=O)[C@H](N)c3ccccc3)C(=O)N2[C@H]1C(=O)O [AMP, ampicillin] | – | –
> 150 | > 150 | > 150 | 116 (≈ 63.4 µg/mL) | > 150 | > 150 | > 150 | > 150 | 133 (≈ 72.7 µg/mL) | > 150 | > 150 | > 150 | > 150 | > 150 | > 150 | CC(C)(O/N=C(\C(=O)N[C@@H]1C(=O)N2C(C(=O)[O-])=C(C[n+]3ccccc3)CS[C@H]12)c1csc(N)n1)C(=O)O [CAZ, ceftazidime] | – | –
> 150 | – | 0.8 (≈ 0.265 µg/mL) | – | – | – | – | – | – | – | – | – | – | – | – | O=C(O)c1cn(C2CC2)c2cc(N3CCNCC3)c(F)cc2c1=O [CIPRO, ciprofloxacin] | – | –
> 150 | – | > 150 | 137 (≈ 76 µg/mL) | 89 (≈ 49.4 µg/mL) | 0.3 (≈ 0.166 µg/mL) | > 150 | 1.9 (≈ 1.05 µg/mL) | 0.2 (≈ 0.111 µg/mL) | > 150 | 45 (≈ 25 µg/mL) | > 150 | > 150 | > 150 | 1.9 (≈ 1.05 µg/mL) | CO/N=C(\C(=O)N[C@@H]1C(=O)N2C(C(=O)O)=C(CSc3nc(=O)c(=O)[nH]n3C)CS[C@H]12)c1csc(N)n1 [CRO, ceftriaxone] | – | –
– | – | – | – | – | – | – | – | – | – | – | – | – | – | – | CC(C)C[C@@H](NC(=O)[C@@H](CCCNC(=N)N)NC(=O)[C@H](N)CCCNC(=N)N)C(=O)N[C@H](C)C(=O)N[C@H](Cc1ccccc1)C(=O)N[C@H](C)C(=O)N[C@H](Cc1ccccc1)C(=O)N[C@H](CCCNC(=N)N)C(=O)N[C@H](CCCNC(=N)N)C(=O)N[C@H](Cc1c[nH]c2ccccc12)C(=O)N[C@H](C)C(=O)N[C@H](CCCNC(=N)N)C(=O)N[C@H](CCCNC(=N)N)C(N)=O [D-CONGA-FLIP] (H-[dR][dR][dL][dA][dF][dA][dF][dR][dR][dW][dA][dR][dR]-NH2; N-terminus and C-terminus assumed) | 0.05 | 143
– | – | – | – | – | – | – | – | – | – | – | – | – | – | – | CC(C)C[C@@H](NC(=O)CNC(=O)[C@@H](CCCNC(=N)N)NC(=O)[C@@H](CCCNC(=N)N)NC(=O)[C@@H](C)NC(=O)[C@@H](Cc1c[nH]c2ccccc12)NC(=O)[C@@H](CCCNC(=N)N)NC(=O)[C@H](N)CCCNC(=N)N)C(=O)N[C@H](C)C(=O)N[C@H](Cc1ccccc1)C(=O)N[C@H](C)C(=O)N[C@H](Cc1ccccc1)C(=O)N[C@H](CCCNC(=N)N)C(=O)N[C@H](CCCNC(=N)N)C(N)=O [D-CONGA-G7] (H-[dR][dR][dW][dA][dR][dR]G[dL][dA][dF][dA][dF][dR][dR]-NH2; N-terminus and C-terminus assumed) | 0.07 | 235
– | – | – | – | – | – | – | – | – | – | – | – | – | – | – | CC(C)C[C@@H](NC(=O)[C@@H](CCCCNC(=N)N)NC(=O)[C@@H](CCCCNC(=N)N)NC(=O)[C@@H](C)NC(=O)[C@@H](Cc1c[nH]c2ccccc12)NC(=O)[C@@H](CCCNC(=N)N)NC(=O)[C@H](N)CCCNC(=N)N)C(=O)N[C@H](C)C(=O)N[C@H](Cc1ccccc1)C(=O)N[C@H](C)C(=O)N[C@H](Cc1ccccc1)C(=O)N[C@H](CCCNC(=N)N)C(=O)N[C@H](CCCNC(=N)N)C(N)=O [D-CONGA-HomoR] (H-[dR][dR][dW][dA][d(hArg)][d(hArg)][dL][dA][dF][dA][dF][dR][dR]-NH2; N-terminus and C-terminus assumed) | 0.06 | 143
– | – | – | – | – | – | – | – | – | – | – | – | – | – | – | CC(C)C[C@@H](NC(=O)[C@@H](CCCNC(=N)N)NC(=O)[C@@H](CCCNC(=N)N)NC(=O)[C@@H](Cc1c[nH]c2ccccc12)NC(=O)[C@@H](CCCNC(=N)N)NC(=O)[C@H](N)CCCNC(=N)N)C(=O)N[C@H](C)C(=O)N[C@H](Cc1ccccc1)C(=O)N[C@H](C)C(=O)N[C@H](Cc1ccccc1)C(=O)N[C@H](CCCNC(=N)N)C(=O)N[C@H](CCCNC(=N)N)C(N)=O [D-CONGA-ΔA4] (H-[dR][dR][dW][dR][dR][dL][dA][dF][dA][dF][dR][dR]-NH2; N-terminus and C-terminus assumed) | 0.02 | 143
– | – | – | – | – | – | – | – | – | – | – | – | – | – | – | CC(C)C[C@@H](NC(=O)[C@@H](CCCNC(=N)N)NC(=O)[C@@H](CCCNC(=N)N)NC(=O)[C@@H](C)NC(=O)[C@@H](Cc1c[nH]c2ccccc12)NC(=O)[C@@H](CCCNC(=N)N)NC(=O)[C@H](N)CCCNC(=N)N)C(=O)N[C@H](C)C(=O)N[C@H](Cc1ccccc1)C(=O)N[C@H](Cc1ccccc1)C(=O)N[C@H](CCCNC(=N)N)C(=O)N[C@H](CCCNC(=N)N)C(N)=O [D-CONGA-ΔA10] (H-[dR][dR][dW][dA][dR][dR][dL][dA][dF][dF][dR][dR]-NH2; N-terminus and C-terminus assumed) | 0.02 | 257
> 150 | – | > 150 | 13.3 (≈ 5.1 µg/mL) | 4 (≈ 1.53 µg/mL) | 0.2 (≈ 0.0767 µg/mL) | 0.2 (≈ 0.0767 µg/mL) | 0.4 (≈ 0.153 µg/mL) | 0.2 (≈ 0.0767 µg/mL) | > 150 | 108 (≈ 41.4 µg/mL) | > 150 | > 150 | > 150 | 0.3 (≈ 0.115 µg/mL) | C[C@@H](O)[C@H]1C(=O)N2C(C(=O)O)=C(S[C@@H]3CN[C@H](C(=O)N(C)C)C3)[C@H](C)[C@H]12 [MEM, meropenem] | – | –
> 150 | – | > 150 | 4.2 (≈ 1.96 µg/mL) | 5.9 (≈ 2.76 µg/mL) | 7.5 (≈ 3.51 µg/mL) | > 150 | 3.5 (≈ 1.64 µg/mL) | 6.9 (≈ 3.23 µg/mL) | > 150 | > 150 | > 150 | > 150 | > 150 | 4.6 (≈ 2.15 µg/mL) | NC[C@H]1O[C@H](O[C@H]2[C@H](O)[C@@H](O[C@H]3O[C@H](CO)[C@@H](O)[C@H](N)[C@H]3O)[C@H](N)C[C@@H]2N)[C@H](N)C[C@@H]1O [TOB, tobramycin] | – | –

Reference: publication PMC10111420, “Optimization of Host Cell-Compatible, Antimicrobial Peptides Effective against Biofilms and Clinical Isolates of Drug-Resistant Bacteria” (ACS Infectious Diseases, 2023)
